Data: US20040101834A1, “Method of and kit for assessing responsiveness of cancer patients to antifolate chemotherapy” (priority 2001, published 2004)
Where two headings read alike, the source gives them in different places. Marks after values point to notes of the source that are not given here.

Columns and labels:
[1] = test system: parental human CEM leukemia cells (CEM/WT); assay: Antifolate growth inhibition, 72 h drug exposure; format: cell-based
[2] = test system: GW70 cells (GW1843U89-resistant CEM subline); assay: Antifolate growth inhibition, 72 h drug exposure; format: cell-based, human; conditions: for sensitivity relative to parental CEM cells: lipid-soluble antifolates
GW70/LF cells = assay: Antifolate growth inhibition, 72 h drug exposure; format: cell-based
Protocol: The GW70 subline was established by stepwise exposure of parental CEM cells to gradually increasing concentrations of the potent thymidylate synthase inhibitor, GW1843U89 in normal growth medium; this selection was initiated at 1.5 nM and terminated at 70 nM GW1843U89, the cells were therefore termed GW70. GW70/LF cells were established by gradual deprivation of folic acid from the growth medium; this was terminated at a concentration of 5 nM folic acid.

[3] = test system: mouse MTX^rA leukemia transfectant harboring His27 RFC cDNA; assay: Folate growth requirement in RFC transfectants; format: cell-based
Protocol: (§2) Thereafter, cells were washed twice with serum-free folic acid-free medium, in order to eliminate GAT. […] Thereafter, cells were exposed continuously to various concentrations of leucovorin or folic acid for 72 hours, following which cell numbers were determined by hemocytometer count of viable cells, using trypan blue exclusion.

[4] = test system: mouse MTX^rA leukemia transfectant harboring His27/His56 RFC cDNA; assay: Folate growth requirement in RFC transfectants; format: cell-based
Protocol: as §2

[5] = test system: mouse MTX^rA leukemia transfectant harboring Arg27/His56 RFC cDNA; assay: Folate growth requirement in RFC transfectants; format: cell-based
Protocol: as §2

[6] = test system: mouse MTX^rA leukemia transfectant harboring Glu45Lys RFC cDNA; assay: Folate growth requirement in RFC transfectants; format: cell-based
Protocol: as §2

[7] = test system: parental human CEM leukemia cells (CEM/WT); assay: Folate growth requirement; format: cell-based; conditions: read-out: EC50, concentration necessary to support 50% of maximal growth, Table 6
Source text: (§1) Table 6 below summarizes the antifolate growth inhibition and folate growth requirement in parental human CEM leukemia cells and their GW70 subline.

[8] = test system: mouse MTX^rA leukemia transfectant harboring native RFC (Arg27) cDNA; assay: Folate growth requirement in RFC transfectants; format: cell-based
Protocol: as §2

[9] = test system: GW70 cells (GW1843U89-resistant CEM subline); assay: Folate growth requirement; format: cell-based, human; conditions: Homo sapiens, read-out: EC50, concentration necessary to support 50% of maximal growth; Table 6; column GW (GW70)
Source text: as §1

TS = TS (Mus musculus, UniProt P07607); conditions: Jackman, 1991; cited from earlier work
TS, sequence (P07607 whole entry): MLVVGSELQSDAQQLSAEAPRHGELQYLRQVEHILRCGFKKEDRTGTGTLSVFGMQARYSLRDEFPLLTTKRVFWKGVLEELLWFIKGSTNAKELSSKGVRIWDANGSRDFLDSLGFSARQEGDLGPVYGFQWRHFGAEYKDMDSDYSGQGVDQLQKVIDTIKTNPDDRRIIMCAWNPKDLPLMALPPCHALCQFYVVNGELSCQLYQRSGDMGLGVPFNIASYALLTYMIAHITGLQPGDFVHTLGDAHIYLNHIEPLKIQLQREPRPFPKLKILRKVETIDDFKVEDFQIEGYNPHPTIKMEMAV

RFC in GW70 cells = molecular target: T1, RFC in GW70 cells (Homo sapiens, UniProt P41440, E45K/H27R/S46I/V29L); assay: [3H]MTX and [3H]folic acid transport; format: cell-based; conditions: GW70 vs parental CEM
T1 construct: endogenous in cells; host or cells: CEM-GW70 (GW1843U89-resistant CCRF-CEM subline)
T1 sequence (P41440 1-591 H27R/V29L/E45K/S46I): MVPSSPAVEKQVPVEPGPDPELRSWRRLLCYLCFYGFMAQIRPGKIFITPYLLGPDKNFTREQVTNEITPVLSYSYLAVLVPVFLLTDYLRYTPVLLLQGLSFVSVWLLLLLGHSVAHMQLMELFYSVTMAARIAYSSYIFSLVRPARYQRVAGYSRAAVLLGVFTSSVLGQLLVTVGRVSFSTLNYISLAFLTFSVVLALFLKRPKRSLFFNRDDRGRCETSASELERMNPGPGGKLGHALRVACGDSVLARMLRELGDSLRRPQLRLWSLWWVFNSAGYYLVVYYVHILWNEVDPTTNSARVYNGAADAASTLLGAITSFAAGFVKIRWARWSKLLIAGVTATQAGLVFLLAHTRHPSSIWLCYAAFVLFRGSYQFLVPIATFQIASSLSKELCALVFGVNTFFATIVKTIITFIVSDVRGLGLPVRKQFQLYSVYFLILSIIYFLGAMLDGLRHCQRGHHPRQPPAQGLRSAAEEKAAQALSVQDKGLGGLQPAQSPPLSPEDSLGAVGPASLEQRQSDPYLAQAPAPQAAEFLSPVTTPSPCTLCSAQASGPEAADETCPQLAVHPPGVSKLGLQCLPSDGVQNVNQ
Protocol: At selected transport time intervals, ranging from 0.5-30 minutes, uptake was terminated by the addition of 10 ml ice-cold HBSS, after which centrifugation and cell wash with another 10 ml ice-cold HBSS were performed. The final cell pellet was then counted for radioactivity.

[10] = substrate: Nc1nc2ncc(CNc3ccc(C(=O)N[C@@H](CCC(=O)O)C(=O)O)cc3)nc2c(=O)[nH]1; assay: cells, lysate or membranes; format: cell-based, human; conditions: influx, initial (3 min) uptake rates, Lineweaver-Burk, pH 7.4, 37.0 °C
[11] = substrate: CN(Cc1cnc2nc(N)nc(N)c2n1)c1ccc(C(=O)N[C@@H](CCC(=O)O)C(=O)O)cc1; assay: cells, lysate or membranes; conditions: other: CEM/GW70; influx, initial (3 min) uptake rates, Lineweaver-Burk; pH 7.4; 37.0 °C
[12] = substrate: CN(Cc1cnc2nc(N)nc(N)c2n1)c1ccc(C(=O)N[C@@H](CCC(=O)O)C(=O)O)cc1; assay: cells, lysate or membranes; format: cell-based, human; conditions: other: CEM/GW70-LF; influx, initial (3 min) uptake rates, Lineweaver-Burk; pH 7.4; 37.0 °C
[13] = Homo sapiens, Table 10, CEM/WT, 72 h drug exposure, read-out: IC50
[14] = Homo sapiens, 72 h, Table 10, GW70/LF
[15] = Table 10, CEM/WT, 72 h drug exposure, read-out: IC50
[16] = Table 10, GW70, 72 h drug exposure, read-out: IC50
[17] = Table 10, GW70/LF, read-out: IC50
[18] = Homo sapiens, 72 h, Table 10, GW70/LF grown in the presence of 2.3 µM folic acid
[19] = Mus musculus, read-out: EC50, concentration necessary to support 50% of maximal growth of control cells

COc1cc(NCc2ccc3nc(N)nc(N)c3c2C)cc(OC)c1OC [TMQ]
IC50 [1, 13]: 7.5 ± 2.1 nM
sensitivity relative to parental CEM cells ([2]; GW70, listed as trimetraxate): hypersensitive
sensitivity relative to parental CEM cells ([2]; GW70, listed as trimetrexate): collaterally more sensitive than parental CEM cells
IC50 ([2]; Homo sapiens, 72 h): 7.2 ± 1.7 nM
IC50 (GW70/LF cells; [14]): 1.1 ± 0.2 nM

Cc1ccc2nc(N)[nH]c(=O)c2c1Sc1ccncc1 [AG337]
IC50 [1, 15]: 1800 ± 340 nM
sensitivity relative to parental CEM cells ([2]; GW70): collaterally more sensitive than parental CEM cells
IC50 [2, 16]: 974 ± 241 nM
IC50 (GW70/LF cells; Table 10, GW70/LF grown in the presence of 2.3 µM folic acid, read-out: IC50): 2220 ± 264 nM
IC50 (GW70/LF cells; [17]): 920 ± 430 nM

Nc1nc2c(c(=O)[nH]1)CC(CCc1ccc(C(=O)N[C@@H](CCC(=O)O)C(=O)O)cc1)CN2 (some centres unmarked) [DDATHF, 5,10-dideazatetrahydrofolic acid]
IC50 ([1]; Homo sapiens, 72 h): 11 ± 4 nM
IC50 ([2]; Homo sapiens, 72 h): 360 ± 106 nM
IC50 (GW70/LF cells; [14]): 8.2 ± 1.7 nM
IC50 (GW70/LF cells; [18]): > 10000 nM

Nc1nc2c(c(=O)[nH]1)N(C=O)C(CNc1ccc(C(=O)N[C@@H](CCC(=O)O)C(=O)O)cc1)CN2 (some centres unmarked) [Leucovorin, 5-formyltetrahydrofolate]
EC50 [3, 19]: 0.78 ± 0.09 nM
MTX IC50/leucovorin EC50 ratio ([3]; in parentheses): (0.97)
EC50 [4, 19]: 0.42 ± 0.1 nM
MTX IC50/leucovorin EC50 ratio ([4]; in parentheses): (1.81)
EC50 [5, 19]: 0.7 ± 0.14 nM
MTX IC50/leucovorin EC50 ratio ([5]; in parentheses): (1.32)
MTX IC50/leucovorin EC50 ratio ([6]; Glu45Lys transfectant, in parentheses): (1.17)
EC50 [6, 19]: 0.65 ± 0.15 nM
EC50 [7]: 0.51 ± 0.08 nM
MTX IC50/leucovorin EC50 ratio ([8]; Arg27 transfectant, in parentheses): (1)^c
EC50 ([8]; Mus musculus, read-out: EC50, concentration necessary to support 50% of maximal growth of control cells, Arg27 (native RFC) transfectant): 0.76 ± 0.03 nM
EC50 [9]: 2.4 ± 1.1 nM

Nc1nc(N)c2nc(CNc3ccc(C(=O)N[C@@H](CCCNC(=O)c4ccccc4C(=O)O)C(=O)O)cc3)cnc2n1 [PT523]
IC50 [1, 15]: 1.1 ± 0.3 nM
IC50 [2, 16]: 81 ± 16 nM
IC50 (GW70/LF cells; [17]): 1.4 ± 0.1 nM

Cc1nc2ccc(CN(C)c3ccc(C(=O)N[C@@H](CCC(=O)O)C(=O)O)s3)cc2c(=O)[nH]1 [ZD1694]
IC50 [1, 13]: 3.5 ± 0.6 nM
IC50 ([2]; Homo sapiens, 72 h): 515 ± 224 nM
IC50 (GW70/LF cells; Homo sapiens, 72 h, Table 10, GW70/LF grown in the presence of 2.3 µM folic acid, read-out: IC50): 389 ± 55 nM
IC50 (GW70/LF cells; Homo sapiens, 72 h, Table 10, GW70/LF, read-out: IC50): 3.2 ± 0.5 nM
Ki (TS): 60 nM

Nc1nc2[nH]cc(CCc3ccc(C(=O)N[C@@H](CCC(=O)O)C(=O)O)cc3)c2c(=O)[nH]1 [MTA]
IC50 [1, 13]: 23 ± 7 nM
IC50 ([2]; Homo sapiens, 72 h): 351 ± 73 nM
IC50 (GW70/LF cells; [14]): 4.6 ± 0.6 nM
IC50 (GW70/LF cells; [18]): 221 ± 47 nM

C#CCN(Cc1cc2c(=O)[nH]c(C)nc2cc1C)c1ccc(C(=O)N[C@@H](CCc2nnn[nH]2)C(=O)O)c(F)c1 [ZD9331]
IC50 ([1]; Homo sapiens, 72 h): 16 ± 1 nM
IC50 ([2]; Homo sapiens, 72 h): 479 ± 67 nM
IC50 (GW70/LF cells; [14]): 25 ± 6 nM
IC50 (GW70/LF cells; [18]): 12 ± 4 nM

CN1c2c(nc(N)[nH]c2=O)NCC1CNc1ccc(C(=O)N[C@@H](CCC(=O)O)C(=O)O)cc1 (some centres unmarked) [5-methyl-THF, 5-methyltetrahydrofolate]
fold increased affinity of RFC (RFC in GW70 cells): 3 fold

B1: RFC in GW70 cells (Homo sapiens; E45K/H27R/S46I/V29L) (protein)
chain: MVPSSPAVEKQVPVEPGPDPELRSWRRLLCYLCFYGFMAQIRPGKIFITPYLLGPDKNFTREQVTNEITPVLSYSYLAVLVPVFLLTDYLRYTPVLLLQGLSFVSVWLLLLLGHSVAHMQLMELFYSVTMAARIAYSSYIFSLVRPARYQRVAGYSRAAVLLGVFTSSVLGQLLVTVGRVSFSTLNYISLAFLTFSVVLALFLKRPKRSLFFNRDDRGRCETSASELERMNPGPGGKLGHALRVACGDSVLARMLRELGDSLRRPQLRLWSLWWVFNSAGYYLVVYYVHILWNEVDPTTNSARVYNGAADAASTLLGAITSFAAGFVKIRWARWSKLLIAGVTATQAGLVFLLAHTRHPSSIWLCYAAFVLFRGSYQFLVPIATFQIASSLSKELCALVFGVNTFFATIVKTIITFIVSDVRGLGLPVRKQFQLYSVYFLILSIIYFLGAMLDGLRHCQRGHHPRQPPAQGLRSAAEEKAAQALSVQDKGLGGLQPAQSPPLSPEDSLGAVGPASLEQRQSDPYLAQAPAPQAAEFLSPVTTPSPCTLCSAQASGPEAADETCPQLAVHPPGVSKLGLQCLPSDGVQNVNQ
notes: endogenous in cells; host or cells: CEM-GW70 (GW1843U89-resistant CCRF-CEM subline)
Km ([10]; other: CEM/GW70): 16.5 ± 3.4 µM
Km [11]: 16 ± 3.9 µM

B2: RFC in GW70/LF cells (Homo sapiens; D88H/E45K/H27R/S46I/V29L) (protein)
chain: MVPSSPAVEKQVPVEPGPDPELRSWRRLLCYLCFYGFMAQIRPGKIFITPYLLGPDKNFTREQVTNEITPVLSYSYLAVLVPVFLLTHYLRYTPVLLLQGLSFVSVWLLLLLGHSVAHMQLMELFYSVTMAARIAYSSYIFSLVRPARYQRVAGYSRAAVLLGVFTSSVLGQLLVTVGRVSFSTLNYISLAFLTFSVVLALFLKRPKRSLFFNRDDRGRCETSASELERMNPGPGGKLGHALRVACGDSVLARMLRELGDSLRRPQLRLWSLWWVFNSAGYYLVVYYVHILWNEVDPTTNSARVYNGAADAASTLLGAITSFAAGFVKIRWARWSKLLIAGVTATQAGLVFLLAHTRHPSSIWLCYAAFVLFRGSYQFLVPIATFQIASSLSKELCALVFGVNTFFATIVKTIITFIVSDVRGLGLPVRKQFQLYSVYFLILSIIYFLGAMLDGLRHCQRGHHPRQPPAQGLRSAAEEKAAQALSVQDKGLGGLQPAQSPPLSPEDSLGAVGPASLEQRQSDPYLAQAPAPQAAEFLSPVTTPSPCTLCSAQASGPEAADETCPQLAVHPPGVSKLGLQCLPSDGVQNVNQ
notes: a prominent overproduction of the native ˜80 kDa and truncated 43 kDa RFC proteins; endogenous in cells; host or cells: GW70/LF (GW70 cells adapted to low folate; 5-fold RFC gene amplification)
Km ([10]; other: CEM/GW70-LF): 15.5 ± 2.5 µM
Km [12]: 17.1 ± 1.2 µM
